Results as given in PMC12690644 (RSC Advances, 2025).

What was measured:
[1] = target: acetylcholinesterase (AChE); experiment: colorimetric kinetic kit assay, […] nm; format: biochemical; settings: room temperature, 10-15 min preincubation
β-secretase (BACE-1) = β-secretase (BACE-1) (Homo sapiens, UniProt P56817); experiment: fluorescence kit assay, slope based; format: biochemical
Sequence of β-secretase (BACE-1) (P56817 46-501): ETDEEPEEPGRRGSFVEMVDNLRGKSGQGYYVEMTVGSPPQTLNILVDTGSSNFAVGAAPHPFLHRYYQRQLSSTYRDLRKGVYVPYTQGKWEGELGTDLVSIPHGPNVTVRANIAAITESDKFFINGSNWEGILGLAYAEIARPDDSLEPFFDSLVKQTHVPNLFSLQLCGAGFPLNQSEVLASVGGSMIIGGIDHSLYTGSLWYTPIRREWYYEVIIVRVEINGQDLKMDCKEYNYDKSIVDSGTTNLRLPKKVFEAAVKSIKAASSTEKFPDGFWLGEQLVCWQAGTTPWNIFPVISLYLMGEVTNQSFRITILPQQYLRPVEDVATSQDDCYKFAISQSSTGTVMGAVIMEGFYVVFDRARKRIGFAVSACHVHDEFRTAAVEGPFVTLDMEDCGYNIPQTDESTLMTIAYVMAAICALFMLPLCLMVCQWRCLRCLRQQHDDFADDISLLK

Structure (SMILES) | AChE (μg mL^-1 ± SD) [1] [µg/mL] | IC50 (β-secretase (BACE-1)) [nM]
COc1c(-c2ccc(O)cc2)oc2cc(O)cc(O)c2c1=O [compound 3, isokaempferide] | 0.483 ± 0.015 | 446
CC1=CC(=O)CC(C)(C)[C@@]1(O)/C=C/[C@@H](C)O[C@@H]1O[C@H](CO)[C@@H](O)[C@H](O)[C@H]1O [compound 4, vomifoliol-9-O-β-D-glucopyranoside] | 0.452 ± 0.014 | 171
O=c1c(O)c(-c2ccc(O)cc2)oc2cc(O)cc(O)c12 [compound 2, 3,4′,5,7-tetrahydroxyflavone] | 1.099 ± 0.03 | 25100
C[N+](C)(CCl)CCc1ccc(O)cc1 [compound 5, N-chloromethyl hordenine] | 0.076 ± 0.002 | 1250
CC(=O)[N+](C)(CCl)CCc1ccc(O)cc1 (centres unmarked) [compound 7, N-acetyl-N-chloromethyl-N-methyl tyramine] | 0.607 ± 0.02 | 494
CC(=O)[N+](C)(C)CCc1ccc(O)cc1 [compound 6, N-acetyl hordenine] | 2.255 ± 0.074 | 8210
O=C1C[C@@H](c2ccc(O)cc2)Oc2cc(O)cc(O)c21 [compound 1, naringenin] | 0.212 ± 0.007 | 1550
